# Results as given in a melting point compilation (Tetko et al.; mined from patent text by program, amines drawn as free bases though some values may be those of a salt).
row,SMILES,melting point [°C]
1,CCc1cc(C)cc(CC)c1C1C(=O)C2CC(C3OCCCO3)CC2C1=O (stereo not drawn),100 to 101
2,O=C(Nc1ccccc1)Nc1cccc(-c2ccc(CC34CCCN3C(=O)N(c3cc(Cl)cc(Cl)c3)C4=O)cc2)c1 (stereo not drawn),150
3,COC(=O)CCc1ncc(O)c(C(=O)OC)c1C(=O)OC,66 to 67
4,CS(=O)(=O)C(S(C)(=O)=O)S(=O)(=O)Oc1ccccc1,159 to 160
5,Cc1cc(Cl)ccc1NC(=O)NC(=O)C(Cl)CCl (stereo not drawn),111 to 113
6,NCCSC[C@H]1O[C@@H](n2cnc3c(NCc4ccc([N+](=O)[O-])cc4)ncnc32)[C@H](O)[C@@H]1O,115 to 117
7,CCOCC(=O)Nc1ccc(Br)c(-n2nc(CC)n(Cc3ccc(-c4ccccc4S(=O)(=O)NC(=O)OC(C)(C)C)cc3F)c2=O)c1,132 to 134
8,CN1N=C2C(=Cc3ccccc3)CN(C(=O)CCCl)CC2C1c1ccccc1 (stereo not drawn),134 to 136
9,N#Cc1cccc(-c2nnc(-c3cccnc3)o2)c1,170 to 174
10,CCn1nc(C)c2c1C(=O)NCC(c1ccc(NS(=O)(=O)c3ccccc3S(=O)(=O)c3ccccc3)cc1)=N2,> 230
11,COc1nsnc1S(C)(=O)=O,110 to 112
12,CN(CCCCCCCNC(=O)NCCCOc1cccc(CN2CCCCC2)c1)CCN(Cc1ccc(F)cc1)c1ccccn1,112
13,CCCCOc1c(CNC(=O)OC(C)(C)C)n(CC2CC2)c(=O)c2ccc(C=O)cc12,151 to 152
14,CC(C)(C)c1ccc(-c2[nH]c3cccc4c3c2CCNC4=O)cc1,243 to 244
15,COC(=O)c1cc2c(C)ccc(Cl)c2[nH]1,133 to 134
16,CCOC(=O)c1cnc2onc(C)c2c1OCC,62
17,CC(C)(C)OC(=O)N[C@H](Cc1ccc(Cl)c(Cl)c1)C(=O)N1CCC[C@H]1C(=O)NCC1CCc2n[nH]cc2C1 (stereo partly drawn),100 to 103
18,COc1ccnn2c(-c3ccnc(N)c3)c(-c3ccc(F)c(C)c3)nc12,219 to 220
19,CCOc1cn(C)cc(-c2ccc(Cl)c(C(F)(F)F)c2)c1=O,158 to 159
20,CCCCCCCCCCCCCCOc1ccccc1C(=O)N(CC)CC,31 to 32
21,COc1ccc2c(c1)c(Cc1cc(=O)n(-c3cccc(F)c3)[nH]1)c(C)n2C(=O)c1ccc(Cl)cc1,162 to 164
22,COC(=O)c1ccc2c(c1)NCc1ccccc1O2,125 to 126
23,COC1C(OC(=O)NC(=O)CCl)CCC(O)(CSC)C1C1(C)OC1CC=C(C)C (stereo not drawn),101 to 102
24,CCN(CC)C(=O)COc1cc(N)c(Cl)cc1C(=O)O,186 to 188
25,CC(C)(O)c1cc(Br)cnc1N,107 to 108

row,SMILES,melting point [°C]
1,O=C(O)c1ccc(CO)cc1O,179 to 180
2,COc1cccc(OC)c1-c1ccc(C[C@H](NC(=O)c2c(Cl)cc(F)cc2Cl)C(=O)O)cc1,206 to 207
3,CCOC(=O)CCc1coc2c(O[Si](C)(C)C(C)(C)C)c3ccccc3c(C)c12,92.4 to 93.5
4,O=C(O)C1(CSCc2ccccc2)Cc2ccccc2O1 (stereo not drawn),125 to 127
5,CC(=O)Nc1nc(CCc2ccc(CCBr)cc2)cs1,153 to 154
6,O=C(O)CCCc1cccc(OCc2ccccc2)c1,100 to 102
7,CCN1CCN(Cc2ccc3c(c2)-c2[nH]nc(-c4ccsc4)c2C3)CC1,221 to 223
8,OC(c1ccc2c(c1)COCO2)c1cn(C(c2ccccc2)(c2ccccc2)c2ccccc2)cn1 (stereo not drawn),165 to 167
9,CCC1=NN(CCO[Si](C)(C)C(C)(C)C)C(=O)C1Oc1cc(C#N)cc(C#N)c1 (stereo not drawn),204
10,N#Cc1ncncc1-c1ccc(CBr)cc1,114 to 116
11,COCc1nnc(-c2cccnc2)n1-c1c(C)c(Cl)cc2[nH]c(=O)c(=O)[nH]c12,> 300
12,O=C(N[C@H](Cc1ccc(C(F)(F)F)cc1)[C@@H](O)c1ccccc1F)c1ccc(F)c2ccccc12 (racemic),190 to 191
13,CN1CCN(c2cccc3c2C[C@H](NC(=O)c2ccc(N4CCOCC4)cc2)CC3)CC1,230 to 231
14,CCOC(=O)c1cc2n(C)c3ccc(F)cc3c(=O)n2n1,288 to 290
15,CCOc1nc2cc(C)nn2c2c1cnc1c2cnn1CC,142 to 144
16,CC(C)(C)OC(=O)COCCCCS(=O)(=O)c1cnc(-c2ccccc2)c(-c2ccccc2)n1,88 to 90
17,ClCCCn1c2ccccc2c2cc(-c3nc(-c4ccccc4)no3)ncc21,192 to 195
18,CSCCCn1cc(C2=C(c3cn(C)c4ccccc34)C(=O)NC2=O)c2ccccc21,222 to 224
19,Cc1ncccc1OCCO,75 to 80
20,CC1(C)OC(=O)C(OC2CCCCC2)=C1c1ccc(S(C)(=O)=O)cc1,143 to 144
21,CCC(C)(C)c1ccc(OCCCNC(=O)c2cc(N=C=S)c3ccccc3c2O)c(C(C)(C)CC)c1,91 to 94
22,NC(=O)CCCCCN1CCN(c2csc3cc(F)ccc23)CC1,141 to 142
23,CCOC(=O)Cc1nc(-c2ccc(Cl)cc2)oc1C,69 to 70
24,CCCCNCc1cc(N)c(Cc2ccccc2)c(S(N)(=O)=O)c1,141 to 143
25,Cc1ccnc(-n2ccnc2S(=O)Cc2ccccc2N(C)C)c1 (stereo not drawn),127 to 129

row,SMILES,melting point [°C]
1,C[Si](C)(C)c1ccc2cc(C(=O)O)n(Cc3cccc(F)c3)c2c1,189 to 191
2,O=C(NCC(c1ccccc1)c1ccccc1)N1CCC(=C(c2ccccc2)c2ccccc2)CC1,158 to 160
3,N#CC=Cc1ccc(C=Cc2ccc(C=CC#N)cc2)cc1,219 to 221
4,CCN(CC)C(=O)c1cnn(C)c1C(=O)Nc1ccn2nc(-c3ccccc3)nc2c1,177 to 179
5,COC(=O)c1cc2cc3c(cc2[nH]1)OCC(=O)N3,188 to 196
6,Cc1nc2c3c(c(C(=O)N4CC(O)C4)cc2n1C)CCC1(Cc2ccccc2C1)N3,171 to 172
7,CC(=O)C1=C(O)C(=C(C)Nc2ccc(OC(=O)NCc3ccccc3)cc2)C(=O)OC1=O,195 to 197
8,CCN(CC)CCC(=O)O,65 to 67
9,NCCOc1ccc(C=CC(=O)N2CCc3c([nH]c4ccccc34)C2c2ccc3c(c2)CCO3)cc1 (stereo not drawn),186
10,CC(=O)Nc1nc(-c2ccc(S(=O)(=O)CCO)cc2)cs1,258 to 260
11,COC(=O)c1ccc(O)c(C23CC4CC(CC(C4)C2)C3)c1,183 to 184
12,O=c1[nH]c2ccc(Cl)cc2n1CCO,160
13,Cc1ccc(-c2ncc(N(C)CCCCOCC(=O)O)nc2-c2ccc(C)cc2)cc1,161 to 162
14,CNc1ccccc1C(=O)N1Cc2ccccc2C(=O)N1,199 to 202
15,CC(C)(C)OC(=O)Nc1cc(OCc2ccccc2)c2ccc(C#N)cc2c1,145
16,O=C(O)C1CCc2[nH]c3ccccc3c2C1 (stereo not drawn),198 to 199
17,CCCCOc1ccc(C(=O)N(C)Cc2cccc(-c3ccc(CC4SC(=O)NC4=O)cc3)c2)cc1 (stereo not drawn),116
18,O=C(O)CCC(F)(F)C(F)(F)CCC(=O)O,204
19,O=C1c2ccc(F)cc2CC1c1ccc(F)cc1 (stereo not drawn),72 to 74
20,NC(=O)C1(N2CCCCC2)CCN(Cc2ccccc2)CC1,150 to 160
21,O=S(=O)(NCCCCOc1ccc(-n2ccnc2)cc1)c1cccc2cccnc12,131 to 133
22,CS(=O)(=O)N(c1ccc(CN2N=C(c3ccc(Cl)cc3)c3ccccc3-n3cnnc32)cc1)S(C)(=O)=O,220 to 221
23,Cc1ccc(S(=O)(=O)NN=CC(Cl)Cl)cc1,123
24,CCOC(=O)c1cn(Cc2ccccn2)nc1S(=O)(=O)NC(=O)Nc1nc(OC)cc(OC)n1,95 to 96
25,COc1ccc(C(=O)NC(Cc2ccccc2)C(=O)NC(Cc2ccc(O)cc2)C(=O)O)cc1 (stereo not drawn),198 to 200

row,SMILES,melting point [°C]
1,O=c1[nH]c2ccccc2c(=O)c2ccccc12,245 to 248
2,COC(=O)c1ccc(NC(=O)CCc2c(C)noc2-c2ccccc2)cc1,140 to 141
3,CCN(C(=O)N(C)C)c1ccccc1-c1ccc2nnc(C)n2n1,138 to 140
4,O=C(O)Cc1cccc(Cc2nc3c(F)c(F)cc(F)c3s2)c1Cl,156 to 158
5,O=C(O)C(=O)c1ccc(OCC(=O)N2CCC(c3ccccc3)CC2)cc1,209 to 210
6,CC(C)CCC[C@H](NC(=O)[C@@H](N)Cc1c[nH]cn1)[C@@H](O)C1CCCCC1,126 to 130
7,CC(C)NC1C(n2cccn2)=NNN1S (stereo not drawn),80 to 85
8,O=C(Cl)[C@@H]1CCCN1S(=O)(=O)c1ccc2ccccc2c1,107 to 109
9,CN(C)C=CC(=O)c1ccc(OCC(O)CN2CCN(c3cccc(Cl)c3)CC2)cc1 (stereo not drawn),130 to 133
10,CCNC(=O)[C@@H]1CCCN1C(=O)[C@H](C)NC(=O)C12CC3CC(CC(C3)C1)C2,116 to 118
11,CCCc1c(OCC#CCCCC(=O)O)ccc(C(C)=O)c1O,84 to 86
12,COc1ccc2c(O)c(C(=O)NCCO)nc(Cl)c2c1,165 to 167
13,CCCc1nc2c(N)nc3cc(-c4cccc(C(=O)N5CCCC5)c4)ccc3c2s1,177 to 180
14,COC(=O)c1cc(-c2ccc3c(c2)c2cc(-c4ccc(Cl)cc4Cl)c(=O)n(C)c2n3C)on1,280 to 281
15,O=C(c1ccc(O)cc1)C12CC3CC(C1)CC(C(=O)c1ccc(O)cc1)(C3)C2,208 to 209
16,O=[N+]([O-])c1cc(Br)ccc1Nc1cccc(-n2ccnc2)n1,194 to 195
17,CC(C)(C)C(F)(F)c1ccc(C[C@H](N)[C@H](O)c2cccc(Cl)c2)cc1 (racemic),105 to 107
18,Cc1csc(=Nc2ccccc2C)s1,65.5 to 69
19,O=c1[nH]cccc1-c1cccn2nc(Nc3ccc4ncccc4c3)nc12,> 250
20,COC(=O)c1cc2ccc(Cl)c(Cl)c2o1,162
21,CC1Cc2cc(S(N)(=O)=O)cc(C(=O)O)c2O1 (stereo not drawn),245 to 246
22,Cc1ccc(N(c2ccc(C)cc2)c2ccc(-c3ccc(-c4ccc(N(c5ccc(C)cc5)c5ccc(C)cc5)cc4)cc3)cc2)cc1,232 to 234
23,COCCCNC(=O)Nc1ccc(N(C)C)cc1C(=O)NCC1CCN(C(c2ccccc2)c2ccccc2)CC1,191 to 193
